Laboratory results as given in patent US20260226493A1, “HERBICIDE RESISTANT PLANTS” (SYNGENTA CROP PROTECTION AG, priority 2023, published 2026).

Key:
Test in all cases: BIO3-BIO1 mutant enzyme activity in the presence of herbicide, percentage inhibition (fluorometric DAPA assay)
Type in all cases: biochemical
Conditions in all cases: read-out: percentage inhibition
[1] = target: T1, Arabidopsis thaliana BIO3-BIO1 (BioDA) mutants (Arabidopsis thaliana, UniProt B0F481, A609W)
T1 construct: with the predicted N-terminal mitochondrial transit peptide removed; 6xHis-tag (N); thrombin cleavage site (N); made in house; host or cells: E. coli BL21 (DE3) bioA
T1 sequence (B0F481 23-833 A609W): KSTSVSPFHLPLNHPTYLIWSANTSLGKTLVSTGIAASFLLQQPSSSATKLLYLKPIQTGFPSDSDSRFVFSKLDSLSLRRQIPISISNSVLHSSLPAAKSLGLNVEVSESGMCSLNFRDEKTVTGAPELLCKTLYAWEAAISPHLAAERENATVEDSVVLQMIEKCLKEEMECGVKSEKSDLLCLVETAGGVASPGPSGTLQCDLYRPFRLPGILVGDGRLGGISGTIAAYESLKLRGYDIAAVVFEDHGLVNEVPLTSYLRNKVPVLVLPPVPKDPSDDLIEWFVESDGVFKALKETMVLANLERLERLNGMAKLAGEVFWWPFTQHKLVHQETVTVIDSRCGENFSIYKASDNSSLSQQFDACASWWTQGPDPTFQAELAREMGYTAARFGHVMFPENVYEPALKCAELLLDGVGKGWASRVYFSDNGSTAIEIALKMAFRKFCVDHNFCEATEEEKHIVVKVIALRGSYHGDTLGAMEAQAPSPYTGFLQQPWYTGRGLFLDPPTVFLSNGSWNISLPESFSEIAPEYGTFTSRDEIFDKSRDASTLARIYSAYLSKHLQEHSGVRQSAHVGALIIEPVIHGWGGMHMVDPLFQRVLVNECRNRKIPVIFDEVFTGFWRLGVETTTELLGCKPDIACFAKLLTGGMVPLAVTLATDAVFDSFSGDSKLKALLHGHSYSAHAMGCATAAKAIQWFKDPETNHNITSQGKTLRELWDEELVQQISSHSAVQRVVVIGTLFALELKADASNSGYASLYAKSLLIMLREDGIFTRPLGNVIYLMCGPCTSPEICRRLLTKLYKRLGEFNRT
From the text: (§1) A pet-24 plasmid containing a DNA sequence encoding each identified variant mutant of BIO3-BIO1 derived from Arabidopsis thaliana from example 5 above, as shown in Table 13 below and as shown in full in SEQ ID NOs: 15 to 155, codon-optimised for expression in E. coli, with an N-terminal 6×His-tag and thrombin cleavage site and under control of a T7 promoter, and was synthesised by Twist Bioscience, in a similar manner to SEQ ID NO:311. These plasmids were then expressed in E. coli BL21 (DE3) bioA with 50 μg/mL kanamycin and 25 μg/mL chloramphenicol selection. Overnight cultures grown at 37° C. were used to inoculate 8×500 mL AIM in shake flasks at a ratio of 1:100. Cultures were grown at 37° C., 200 rpm for 3.5 hours and then overnight at 20° C. Cells were harvested by centrifugation for 30 minutes at 10 000 g. Cells were stored at −80° C. until extraction. 30 g of cell pellet from was thawed in 120 mL of IMAC buffer A (20 mM HEPES pH7.5, 25 mM imidazole, 500 mM sodium chloride, 0.15 mM pyridoxal phosphate, 0.5 mM TCEP, 1× complete Protease Inhibitor Tablet (Roche)). The resuspension was passed through a cell disrupter at 18 000 PSI and centrifuged at 50 000 g for 25 minutes at 4° C. The His-tagged BIO3-BIO1 protein was purified from the extract supernatant on an AKTA avant chromatography system (Cytiva) using a HisTrap FF column and eluted in IMAC buffer B ((20 mM HEPES pH7.5, 500 mM imidazole, 500 mM sodium chloride, 0.15 mM pyridoxal phosphate, 0.5 mM TCEP) followed by SEC using a HiLoad 26/60 Superdex200 column in SEC buffer (25 mM HEPES pH7.5, 150 mM sodium chloride, 0.15 mM pyridoxal phosphate, 0.5 mM TCEP). Protein concentration was measured and calculated using the absorbance at 280 nm. Extracts were diluted 1 in 4 and 10 uL was analysed by SDS PAGE.
(§2) To measure BIO3-BIO1 mutant enzyme activity in the presence of herbicide, herbicides were incubated with 20 μL of enzyme mix (100 mM EPPS pH 8.6, 0.1 mM pyridoxal phosphate, 0.1 mg/mL BSA, 50 nM BIO3-BIO1 enzyme) for 10 minutes at 20° C. in a well of a 96-well half-area black plate, followed by the addition of 20 μL of substrate mix (final concentration of 100 mM EPPS pH 8.6, 0.1 mM pyridoxal phosphate, 0.1 mg/mL BSA, 100 μM spermidine, 20 μM KAPA, 100 mM NaCO3) and further incubation for 75 minutes at 20° C. The reaction was terminated by the addition of 50 μL of derivatisation mix (final concentration of 250 mM borate NaOH pH 9.4, 3.6 mM o-phthalaldehyde, 7 mM β-mercaptoethanol, 17% (v/v) ethanol, 3.6% (v/v) methanol). The fluorescent product produced by the reaction of DAPA with o-phthalaldehyde and 7 mM β-mercaptoethanol was measured at 470 nm after excitation at 410 nm. The percentage inhibition was calculated as the activity in the presence of one of three concentrations of each herbicide compound A to M (note that the compounds labelled as A to M are identified hereinabove in the relevant section of the description) as a percentage of the activity in DMSO (Table 12 and 13). The percentage activity versus WT was also calculated and is shown in Table 13 and 14 (NT indicates mutation not tested in table 13, note that these mutations are tested at different compound concentrations for compounds L, M and C, and the results are shown in table 14).

[2] = target: T2, Arabidopsis thaliana BIO3-BIO1 (BioDA) mutants (Arabidopsis thaliana, UniProt B0F481, C388T)
T2 construct: with the predicted N-terminal mitochondrial transit peptide removed; 6xHis-tag (N); thrombin cleavage site (N); made in house; host or cells: E. coli BL21 (DE3) bioA
T2 sequence (B0F481 23-833 C388T): as the sequence (B0F481 23-833 A609W) above, with C366T, W587A counted along it
From the text: as §1, §2

[3] = target: T3, Arabidopsis thaliana BIO3-BIO1 (BioDA) mutants (Arabidopsis thaliana, UniProt B0F481, F348D)
T3 construct: with the predicted N-terminal mitochondrial transit peptide removed; 6xHis-tag (N); thrombin cleavage site (N); made in house; host or cells: E. coli BL21 (DE3) bioA
T3 sequence (B0F481 23-833 F348D): as the sequence (B0F481 23-833 A609W) above, with F326D, W587A counted along it
From the text: as §1, §2

[4] = target: T4, Arabidopsis thaliana BIO3-BIO1 (BioDA) mutants (Arabidopsis thaliana, UniProt B0F481, G608E)
T4 construct: with the predicted N-terminal mitochondrial transit peptide removed; 6xHis-tag (N); thrombin cleavage site (N); made in house; host or cells: E. coli BL21 (DE3) bioA
T4 sequence (B0F481 23-833 G608E): as the sequence (B0F481 23-833 A609W) above, with G586E, W587A counted along it
From the text: as §1, §2

[5] = target: T5, Arabidopsis thaliana BIO3-BIO1 (BioDA) mutants (Arabidopsis thaliana, UniProt B0F481, G700A)
T5 construct: with the predicted N-terminal mitochondrial transit peptide removed; 6xHis-tag (N); thrombin cleavage site (N); made in house; host or cells: E. coli BL21 (DE3) bioA
T5 sequence (B0F481 23-833 G700A): as the sequence (B0F481 23-833 A609W) above, with W587A, G678A counted along it
From the text: as §1, §2

[6] = target: T6, Arabidopsis thaliana BIO3-BIO1 (BioDA) mutants (Arabidopsis thaliana, UniProt B0F481, P421E)
T6 construct: with the predicted N-terminal mitochondrial transit peptide removed; 6xHis-tag (N); thrombin cleavage site (N); made in house; host or cells: E. coli BL21 (DE3) bioA
T6 sequence (B0F481 23-833 P421E): as the sequence (B0F481 23-833 A609W) above, with P399E, W587A counted along it
From the text: as §1, §2

[7] = target: T7, Arabidopsis thaliana BIO3-BIO1 (BioDA) mutants (Arabidopsis thaliana, UniProt B0F481, P508T)
T7 construct: with the predicted N-terminal mitochondrial transit peptide removed; 6xHis-tag (N); thrombin cleavage site (N); made in house; host or cells: E. coli BL21 (DE3) bioA
T7 sequence (B0F481 23-833 P508T): as the sequence (B0F481 23-833 A609W) above, with P486T, W587A counted along it
From the text: as §1, §2

[8] = target: T8, Arabidopsis thaliana BIO3-BIO1 (BioDA) mutants (Arabidopsis thaliana, UniProt B0F481, R797Q)
T8 construct: with the predicted N-terminal mitochondrial transit peptide removed; 6xHis-tag (N); thrombin cleavage site (N); made in house; host or cells: E. coli BL21 (DE3) bioA
T8 sequence (B0F481 23-833 R797Q): as the sequence (B0F481 23-833 A609W) above, with W587A, R775Q counted along it
From the text: as §1, §2

[9] = target: T9, Arabidopsis thaliana BIO3-BIO1 (BioDA) mutants (Arabidopsis thaliana, UniProt B0F481, S509F)
T9 construct: with the predicted N-terminal mitochondrial transit peptide removed; 6xHis-tag (N); thrombin cleavage site (N); made in house; host or cells: E. coli BL21 (DE3) bioA
T9 sequence (B0F481 23-833 S509F): as the sequence (B0F481 23-833 A609W) above, with S487F, W587A counted along it
From the text: as §1, §2

[10] = target: T10, Arabidopsis thaliana BIO3-BIO1 (BioDA) mutants (Arabidopsis thaliana, UniProt B0F481, S509Y)
T10 construct: with the predicted N-terminal mitochondrial transit peptide removed; 6xHis-tag (N); thrombin cleavage site (N); made in house; host or cells: E. coli BL21 (DE3) bioA
T10 sequence (B0F481 23-833 S509Y): as the sequence (B0F481 23-833 A609W) above, with S487Y, W587A counted along it
From the text: as §1, §2

[11] = target: T11, Arabidopsis thaliana BIO3-BIO1 (BioDA) mutants (Arabidopsis thaliana, UniProt B0F481, V354L)
T11 construct: with the predicted N-terminal mitochondrial transit peptide removed; 6xHis-tag (N); thrombin cleavage site (N); made in house; host or cells: E. coli BL21 (DE3) bioA
T11 sequence (B0F481 23-833 V354L): as the sequence (B0F481 23-833 A609W) above, with V332L, W587A counted along it
From the text: as §1, §2

[12] = target: T12, Arabidopsis thaliana BIO3-BIO1 (BioDA) mutants (Arabidopsis thaliana, UniProt B0F481, Y511W)
T12 construct: with the predicted N-terminal mitochondrial transit peptide removed; 6xHis-tag (N); thrombin cleavage site (N); made in house; host or cells: E. coli BL21 (DE3) bioA
T12 sequence (B0F481 23-833 Y511W): as the sequence (B0F481 23-833 A609W) above, with Y489W, W587A counted along it
From the text: as §1, §2

With `CCn1c(Cn2ccc(C(F)(F)F)n2)cc(=O)c(C(=O)O)c1-c1ccc(Cl)c(Cl)c1` [Compound L, 2-(3,4-dichlorophenyl)-1-ethyl-4-oxo-6-[[3-(trifluoromethyl)pyrazol-1-yl]methyl]pyridine-3-carboxylic acid] the inhibition at 0.01 µM [1] was 35%, the inhibition at 0.075 µM [1] was 46% and the inhibition at 0.5 µM [1] was 66%. For the same compound, the inhibition at 0.01 µM [2] was 19%, the inhibition at 0.075 µM [2] was 58% and the inhibition at 0.5 µM [2] was 92%. For the same compound, the inhibition at 0.01 µM [3] was 0%, the inhibition at 0.075 µM [3] was 1% and the inhibition at 0.5 µM [3] was 2%. The inhibition at 0.01 µM [4] was 31%, the inhibition at 0.075 µM [4] was 58% and the inhibition at 0.5 µM [4] was 68%. It also gave an inhibition at 0.01 µM [5] of 6%, an inhibition at 0.075 µM [5] of 6% and an inhibition at 0.5 µM [5] of 3%. The inhibition at 0.01 µM [6] was 0%, the inhibition at 0.075 µM [6] was 0% and the inhibition at 0.5 µM [6] was 41%. The inhibition at 0.01 µM [7] was 25%, the inhibition at 0.075 µM [7] was 22% and the inhibition at 0.5 µM [7] was 85%.

`CCn1c(-c2ccc(Cl)c(Cl)c2)c(C(=O)O)c(=O)c2cc(F)ccc21` [Compound M, 2-(3,4-dichlorophenyl)-1-ethyl-6-fluoro-4-oxo-quinoline-3-carboxylic acid] was tested, and the inhibition at 0.2 µM [1] was 24%, the inhibition at 1 µM [1] was 31% and the inhibition at 5 µM [1] was 52%. The inhibition at 0.2 µM [2] was 48%, the inhibition at 1 µM [2] was 78% and the inhibition at 5 µM [2] was 95%. The inhibition at 0.2 µM [3] was 0%, the inhibition at 1 µM [3] was 2% and the inhibition at 5 µM [3] was 0%. The inhibition at 0.2 µM [4] was 19%, the inhibition at 1 µM [4] was 55% and the inhibition at 5 µM [4] was 85%. The inhibition at 0.2 µM [5] was 7%, the inhibition at 1 µM [5] was 8% and the inhibition at 5 µM [5] was 6%. It also gave an inhibition at 0.2 µM [6] of 0%, an inhibition at 1 µM [6] of 47% and an inhibition at 5 µM [6] of 62%. It also gave an inhibition at 0.2 µM [7] of 20%, an inhibition at 1 µM [7] of 44% and an inhibition at 5 µM [7] of 78%. The inhibition at 0.2 µM [8] was 0%, the inhibition at 1 µM [8] was 5% and the inhibition at 5 µM [8] was 30%. For the same compound, the inhibition at 0.2 µM [9] was 19%, the inhibition at 1 µM [9] was 58% and the inhibition at 5 µM [9] was 89%. For the same compound, the inhibition at 0.2 µM [10] was 28%, the inhibition at 1 µM [10] was 58% and the inhibition at 5 µM [10] was 85%. The inhibition at 0.2 µM [11] was 4%, the inhibition at 1 µM [11] was 43% and the inhibition at 5 µM [11] was 78%. The inhibition at 0.2 µM [12] was 25%, the inhibition at 1 µM [12] was 67% and the inhibition at 5 µM [12] was 90%.
